# Experimental data: ChEMBL document CHEMBL4418493, “N-hydroxyformamide compounds and compositions comprising them for use as BMP1, TLL1 and/or TLL2 inhibitors” (2018)
# Legend:
# [1] = Drug metabolism in heparinized pooled human plasma at pH 7.5 assessed as formation of (S)-2-(2-ethoxy-4-(5-((((R)-2-((R)-1-(N-hydroxyformamido)propyl)heptanamido)methyl) carbamoyl)furan-2-yl)benzamido)succinic acid at 100 to 2000 ng/ml incubated up to 4 or 24 hrs by LC-MS/MS analysis; format: ADME, cell-free; settings: pH 7.5, 24 h
# [2] = Reduction in PICP levels in human cardiac fibroblasts incubated for 24 to 48 hrs by ELISA; format: functional
# [3] = Reduction in mature collagen deposition levels in human cardiac fibroblasts incubated for 24 to 48 hrs by immunostaining based assay; format: functional
# [4] = Stability in pH 7.96 assessed as compound purity level at 1 mg/ml heated to 40 degC and measured at 200 hrs by LC/MS analsysis; format: physicochemical; settings: buffer, read-out: Stability
# [5] = Drug metabolism in heparinized pooled human plasma at pH 7.5 assessed as conversion to active compound at 100 to 2000 ng/ml incubated for 4 by LC-MS/MS analysis; format: ADME, cell-free
# [6] = Drug metabolism in heparinized pooled human plasma at pH 7.5 assessed as formation of (3-ethoxy-5-(5-((((R)-2-((R)-1-(N-hydroxyformamido)propyl)heptanamido)methyl)carbamoyl) furan-2-yl)phenyl)phosphonic acid at 100 to 2000 ng/ml incubated up to 4 or 24 hrs by LC-MS/MS analysis; format: ADME, cell-free; settings: pH 7.5, 24 h
# [7] = Drug metabolism in heparinized pooled human plasma at pH 7.5 assessed as formation of (S)-2-(2-(carboxymethoxy)-4-(5-((((R)-2-((R)-1-(N-hydroxyformamido)propyl)heptanamido)methyl)carbamoyl)furan-2-yl)benzamido)succinic acid at 100 to 2000 ng/ml incubated up to 4 or 24 hrs by LC-MS/MS analysis; format: ADME, cell-free; settings: pH 7.5, 24 h
Compound,Drug metabolism [1],IC50 [2],IC50 [3],"remaining at 200 h, 1 mg/ml [4]",Drug metabolism [5],Drug metabolism [6],Drug metabolism [7]
CCCCC[C@@H](C(=O)NCNC(=O)c1ccc(-c2ccc(C(=O)N[C@@H](CC(=O)O)C(=O)O)c(OCC)c2)o1)[C@@H](CC)N(C=O)OC(=O)c1ccc(OC)cc1OC,Metabolite_Detected,< 3.98 µM,< 1 µM,,,,
CCCCC[C@@H](C(=O)NCNC(=O)c1ccc(-c2ccc(C(=O)N[C@@H](CC(=O)O)C(=O)O)c(OCC)c2)o1)[C@@H](CC)N(C=O)OC(=O)c1c(C)ccnc1C,Metabolite_Detected,< 3.98 µM,< 1 µM,,,,
CCCCC[C@@H](C(=O)NCNC(=O)c1ccc(-c2ccc(C(=O)N[C@@H](CC(=O)O)C(=O)O)c(OCC)c2)o1)[C@@H](CC)N(C=O)OC(=O)c1cccc(-n2cccc2)c1,Metabolite_Detected,< 3.98 µM,< 1 µM,,,,
CCCCC[C@@H](C(=O)NCNC(=O)c1ccc(-c2ccc(C(=O)N[C@@H](CC(=O)O)C(=O)O)c(OCC)c2)o1)[C@@H](CC)N(C=O)OC(=O)Cc1ccccc1,Metabolite_Detected,,,< 80%,> 10%,,
CCCCC[C@@H](C(=O)NCNC(=O)c1ccc(-c2ccc(C(=O)N[C@@H](CC(=O)O)C(=O)O)c(OCC)c2)o1)[C@@H](CC)N(C=O)OC(=O)c1ccc(-n2cnnc2)cc1,Metabolite_Detected,< 3.98 µM,< 1 µM,,,,
CCCCC[C@@H](C(=O)NCNC(=O)c1ccc(-c2cc(OCC)cc(P(=O)(O)O)c2)o1)[C@@H](CC)N(C=O)OC(=O)c1ccc(OC)cc1,,< 3.98 µM,< 1 µM,,,Metabolite_Detected,
CCCCC[C@@H](C(=O)NCNC(=O)c1ccc(-c2ccc(C(=O)N[C@@H](CC(=O)O)C(=O)O)c(OCC)c2)o1)[C@@H](CC)N(C=O)OC(=O)c1ccc(C(F)(F)F)cc1C,Metabolite_Detected,< 3.98 µM,< 1 µM,,,,
CCCCC[C@@H](C(=O)NCNC(=O)c1ccc(-c2cc(OCC)cc(P(=O)(O)O)c2)o1)[C@@H](CC)N(C=O)OCOP(=O)(O)O,,,,,> 10%,Metabolite_Detected,
CCCCC[C@@H](C(=O)NCNC(=O)c1ccc(-c2ccc(C(=O)N[C@@H](CC(=O)O)C(=O)O)c(OCC(=O)O)c2)o1)[C@@H](CC)N(C=O)OC(=O)c1ccccc1,,,,< 80%,> 10%,,Metabolite_Detected
CCCCC[C@@H](C(=O)NCNC(=O)c1ccc(-c2ccc(C(=O)N[C@@H](CC(=O)O)C(=O)O)c(OCC)c2)o1)[C@@H](CC)N(C=O)OC(=O)c1ccc(OC)cc1OC(F)(F)F,Metabolite_Detected,< 3.98 µM,< 1 µM,,,,
CCCCC[C@@H](C(=O)NCNC(=O)c1ccc(-c2cc(OCC)cc(P(=O)(O)O)c2)o1)[C@@H](CC)N(C=O)OC(=O)OC(C)(C)C,,< 3.98 µM,< 1 µM,,,Metabolite_Detected,
CCCCC[C@@H](C(=O)NCNC(=O)c1ccc(-c2ccc(C(=O)N[C@@H](CC(=O)O)C(=O)O)c(OCC)c2)o1)[C@@H](CC)N(C=O)OC(=O)c1ccc(OC)cc1F,Metabolite_Detected,< 3.98 µM,< 1 µM,,,,
CCCCC[C@@H](C(=O)NCNC(=O)c1ccc(-c2cc(OCC)cc(P(=O)(O)O)c2)o1)[C@@H](CC)N(C=O)OC(=O)c1c(C)cccc1OCOP(=O)(O)O.N.N.N.N,,< 3.98 µM,,,,Metabolite_Detected,
CCCCC[C@@H](C(=O)NCNC(=O)c1ccc(-c2ccc(C(=O)N[C@@H](CC(=O)O)C(=O)O)c(OCC)c2)o1)[C@@H](CC)N(C=O)OC(=O)c1ccc(O)cc1,Metabolite_Detected,< 3.98 µM,< 1 µM,,,,
CCCCC[C@@H](C(=O)NCNC(=O)c1ccc(-c2cc(OCC)cc(P(=O)(O)O)c2)o1)[C@@H](CC)N(C=O)OC(=O)c1ccc(N2CCOCC2)cc1C.N.N,,< 3.98 µM,,,,Metabolite_Detected,
CCCCC[C@@H](C(=O)NCNC(=O)c1ccc(-c2ccc(C(=O)N[C@@H](CC(=O)O)C(=O)O)c(OCC)c2)o1)[C@@H](CC)N(C=O)OC(=O)c1ccc(N2CCCC2)c(F)c1.N.N,Metabolite_Detected,< 3.98 µM,< 1 µM,,,,
CCCCC[C@@H](C(=O)NCNC(=O)c1ccc(-c2ccc(C(=O)N[C@@H](CC(=O)O)C(=O)O)c(OCC(=O)O)c2)o1)[C@@H](CC)N(C=O)OC(=O)C(CC)CC,,< 3.98 µM,< 1 µM,,,,Metabolite_Detected
CCCCC[C@@H](C(=O)NCNC(=O)c1ccc(-c2ccc(C(=O)N[C@@H](CC(=O)O)C(=O)O)c(OCC(=O)O)c2)o1)[C@@H](CC)N(C=O)OCOP(=O)(O)O,,,,,> 10%,,Metabolite_Detected

Compound,Drug metabolism [1],IC50 [2],IC50 [3],"remaining at 200 h, 1 mg/ml [4]",Drug metabolism [5],Drug metabolism [6],Drug metabolism [7]
CCCCC[C@@H](C(=O)NCNC(=O)c1ccc(-c2ccc(C(=O)N[C@@H](CC(=O)O)C(=O)O)c(OCC)c2)o1)[C@@H](CC)N(C=O)OC(=O)NC(C)(C)C,Metabolite_Detected,< 3.98 µM,< 1 µM,,,,
CCCCC[C@@H](C(=O)NCNC(=O)c1ccc(-c2ccc(C(=O)N[C@@H](CC(=O)O)C(=O)O)c(OCC)c2)o1)[C@@H](CC)N(C=O)OC(=O)OC(C)(C)C,Metabolite_Detected,< 3.98 µM,< 1 µM,,,,
CCCCC[C@@H](C(=O)NCNC(=O)c1ccc(-c2ccc(C(=O)N[C@@H](CC(=O)O)C(=O)O)c(OCC)c2)o1)[C@@H](CC)N(C=O)OC(=O)c1ccc(OC)cc1C(F)(F)F,Metabolite_Detected,< 3.98 µM,< 1 µM,,,,
CCCCC[C@@H](C(=O)NCNC(=O)c1ccc(-c2cc(OCC)cc(P(=O)(O)O)c2)o1)[C@@H](CC)N(C=O)OC(=O)c1ccccc1O,,< 3.98 µM,,,,Metabolite_Detected,
CCCCC[C@@H](C(=O)NCNC(=O)c1ccc(-c2ccc(C(=O)N[C@@H](CC(=O)O)C(=O)O)c(OCC)c2)o1)[C@@H](CC)N(C=O)OC(=O)c1ccccc1C,Metabolite_Detected,< 3.98 µM,< 1 µM,,,,
CCCCC[C@@H](C(=O)NCNC(=O)c1ccc(-c2cc(OCC)cc(P(=O)(O)O)c2)o1)[C@@H](CC)N(C=O)OC(=O)NC(C)(C)C,,< 3.98 µM,,,,Metabolite_Detected,
CCCCC[C@@H](C(=O)NCNC(=O)c1ccc(-c2cc(OCC)cc(P(=O)(O)O)c2)o1)[C@@H](CC)N(C=O)OC(=O)c1ccc2c(c1)N(C)CCO2.N.N,,< 3.98 µM,,,,Metabolite_Detected,
CCCCC[C@@H](C(=O)NCNC(=O)c1ccc(-c2cc(OCC)cc(P(=O)(O)O)c2)o1)[C@@H](CC)N(C=O)OC(=O)c1ccc(OC)cc1C.N.N,,< 3.98 µM,,,,Metabolite_Detected,
CCCCC[C@@H](C(=O)NCNC(=O)c1ccc(-c2cc(OCC)cc(P(=O)(O)O)c2)o1)[C@@H](CC)N(C=O)OC(=O)c1ccc(N2CCCC2)cc1.N.N,,< 3.98 µM,,,,Metabolite_Detected,
CCCCC[C@@H](C(=O)NCNC(=O)c1ccc(-c2cc(OCC)cc(P(=O)(O)O)c2)o1)[C@@H](CC)N(C=O)OC(=O)c1ccc(N2CCCC2)c(F)c1.N.N,,< 3.98 µM,,,,Metabolite_Detected,
CCCCC[C@@H](C(=O)NCNC(=O)c1ccc(-c2ccc(C(=O)N[C@@H](CC(=O)O)C(=O)O)c(OCC)c2)o1)[C@@H](CC)N(C=O)OC(=O)c1ccccc1C(C)C,Metabolite_Detected,< 3.98 µM,< 1 µM,,,,
CCCCC[C@@H](C(=O)NCNC(=O)c1ccc(-c2cc(OCC)cc(P(=O)(O)O)c2)o1)[C@@H](CC)N(C=O)OC(=O)c1ccc(N2CCCC2=O)cc1.N.N,,< 3.98 µM,,,,Metabolite_Detected,
CCCCC[C@@H](C(=O)NCNC(=O)c1ccc(-c2ccc(C(=O)N[C@@H](CC(=O)O)C(=O)O)c(OCC)c2)o1)[C@@H](CC)N(C=O)OC(=O)NC(C)(C)c1ccccc1,Metabolite_Detected,< 3.98 µM,< 1 µM,,,,
CCCCC[C@@H](C(=O)NCNC(=O)c1ccc(-c2cc(OCC)cc(P(=O)(O)O)c2)o1)[C@@H](CC)N(C=O)OC(=O)c1ccc2c(c1)OCCO2,,< 3.98 µM,< 1 µM,,,Metabolite_Detected,
CCCCC[C@@H](C(=O)NCNC(=O)c1ccc(-c2cc(OCC)cc(P(=O)(O)O)c2)o1)[C@@H](CC)N(C=O)OC(=O)C(CC)CC,,< 3.98 µM,,,,Metabolite_Detected,
CCCCC[C@@H](C(=O)NCNC(=O)c1ccc(-c2ccc(C(=O)N[C@@H](CC(=O)OCOC(=O)C(C)C)C(=O)OCOC(=O)C(C)C)c(OCC)c2)o1)[C@@H](CC)N(O)C=O,Metabolite_Detected,< 3.98 µM,< 1 µM,,,,
CCCCC[C@@H](C(=O)NCNC(=O)c1ccc(-c2ccc(C(=O)N[C@@H](CC(=O)O)C(=O)O)c(OCC(=O)O)c2)o1)[C@@H](CC)N(C=O)OC(=O)c1ccc(OC)cc1C.N.N.N,,< 3.98 µM,< 1 µM,,,,Metabolite_Detected
CCCCC[C@@H](C(=O)NCNC(=O)c1ccc(-c2ccc(C(=O)N[C@@H](CC(=O)O)C(=O)O)c(OCC)c2)o1)[C@@H](CC)N(C=O)OC(=O)c1ccccc1,Metabolite_Detected,< 3.98 µM,,< 80%,> 10%,,
